Laboratory results as given in the supplement of paper PMC10627819.

Columns and labels:
[1] = system: S. aureus Newman; assay: fitness (endpoint OD595 vs no drug) (fraction); higher = more growth
How it was run: (§1)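 Fitness compares growth at the stationary-phase transition with the robust mean of no-drug control wells, as a ratio of optical densities. The ratio is capped at 1. Wells of 384-well plates held 30 µl, or 55 µl for S. pneumoniae, inoculated at OD595 0.01. Readings at OD595 every 30 min for 14 h at 37 °C were corrected against the first reading.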

[2] = system: S. aureus DSM 20231; assay: Bliss interaction score (quartile over a dose matrix) (fitness difference); higher = more antagonism (negative = synergy)
How it was run: (§2)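 Values were capped at 1 after dividing OD595 at stationary-phase entry by the plate's robust no-drug mean. This ratio is fitness, and single-drug fitness was inferred from the combination data. The Bliss score is observed minus product-expected fitness, given as quartiles over technical, biological and donor/recipient replicates.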

[3] = system: B. subtilis 168; assay: as above
How it was run: as §2

[4] = system: S. pneumoniae D39V; assay: as above
How it was run: as §2

[5] = system: S. aureus Newman; assay: as above
How it was run: as §2

[6] = system: S. pneumoniae D39V; assay: fitness (endpoint OD595 vs no drug) (fraction); higher = more growth
How it was run: as §1
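Throughout, for Bliss interaction score (quartile over a dose matrix): first quartile when negative (synergy) and third quartile when positive (antagonism).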

O=C(N[C@H](CO)[C@H](O)c1ccc([N+](=O)[O-])cc1)C(Cl)Cl [Chloramphenicol] + C/C(=C\C(=O)OCCCCCCCCC(=O)O)C[C@@H]1OC[C@H](C[C@@H]2O[C@H]2[C@@H](C)[C@H](C)O)[C@@H](O)[C@H]1O [Pseudomonic acid]
fitness, [1], one replicate
Conditions	first compound 0.75 µg/mL	first compound 1.5 µg/mL	first compound 3 µg/mL
partner 0.0313 µg/mL	0.0723	0.0644	0.0687
partner 0.0625 µg/mL	0.0337	0.0381	0.0484
partner 0.125 µg/mL	0.062	0.0655	0.0652

Conditions	Bliss interaction score
[2]	0.0264
[3]	0.0522
[4]	0.172
[5]	0.0532

O=C(N[C@H](CO)[C@H](O)c1ccc([N+](=O)[O-])cc1)C(Cl)Cl [Chloramphenicol] + CN(C)c1cc(NC(=O)CNC(C)(C)C)c(O)c2c1C[C@H]1C[C@H]3[C@H](N(C)C)C(O)=C(C(N)=O)C(=O)[C@@]3(O)C(O)=C1C2=O [Tigecycline]
fitness, [1]
Conditions	first compound 0.75 µg/mL	first compound 1.5 µg/mL	first compound 3 µg/mL
partner 0.039 µg/mL	0.789	0.509	0.216
partner 0.078 µg/mL	0.831	0.559	0.2
partner 0.156 µg/mL	0.829	0.58	0.213

Conditions	Bliss interaction score
[2]	-0.0788
[3]	-0.0487
[4]	-0.114
[5]	-0.0583

O=C(N[C@H](CO)[C@H](O)c1ccc([N+](=O)[O-])cc1)C(Cl)Cl [Chloramphenicol] + CN[C@@H]1[C@H](O[C@H]2[C@H](O[C@H]3[C@H](O)[C@@H](O)[C@H](N=C(N)N)[C@@H](O)[C@@H]3N=C(N)N)O[C@@H](C)[C@]2(O)C=O)O[C@@H](CO)[C@H](O)[C@H]1O [Streptomycin]
fitness, [1]
Conditions	first compound 0.75 µg/mL	first compound 1.5 µg/mL	first compound 3 µg/mL
partner 1 µg/mL	0.755	0.537	0.213
partner 2 µg/mL	–	0.465	0.177
partner 4 µg/mL	–	–	0.128

Conditions	Bliss interaction score
[2]	0.0438
[3]	0.144
[4]	-0.0647
[5]	-0.0754

O=C(N[C@H](CO)[C@H](O)c1ccc([N+](=O)[O-])cc1)C(Cl)Cl [Chloramphenicol] + O=C(O)c1cn(C2CC2)c2cc(N3CCNCC3)c(F)cc2c1=O [Ciprofloxacin]
fitness, [1]
Conditions	first compound 0.75 µg/mL	first compound 1.5 µg/mL	first compound 3 µg/mL
partner 0.0375 µg/mL	0.644	0.487	0.154
partner 0.075 µg/mL	0.621	0.496	0.182
partner 0.15 µg/mL	0.155	0.212	–

Conditions	Bliss interaction score
[2]	0.0505
[3]	0.161
[4]	-0.0621
[5]	0.126

CCC[C@@H]1C[C@@H](C(=O)N[C@@H]([C@H]2O[C@H](SC)[C@H](O)[C@@H](O)[C@H]2O)[C@H](C)Cl)N(C)C1 [Clindamycin] + C/C(=C\C(=O)OCCCCCCCCC(=O)O)C[C@@H]1OC[C@H](C[C@@H]2O[C@H]2[C@@H](C)[C@H](C)O)[C@@H](O)[C@H]1O [Pseudomonic acid]
fitness, [6]
Conditions	first compound 0.0125 µg/mL	first compound 0.015 µg/mL	first compound 0.025 µg/mL	first compound 0.03 µg/mL	first compound 0.05 µg/mL	first compound 0.06 µg/mL
partner 0.03 µg/mL	0.78	0.836	0.499	0.703	0.211	–
partner 0.06 µg/mL	0.716	0.69	0.4	–	0.17	0.281
partner 0.12 µg/mL	0.237	0.326	0.119	0.229	0.0924	0.16

fitness, [1], one replicate
Conditions	first compound 0.0312 µg/mL	first compound 0.0625 µg/mL	first compound 0.125 µg/mL
partner 0.0313 µg/mL	0.0504	0.0504	0.0456
partner 0.0625 µg/mL	0.046	0.0445	0.0496
partner 0.125 µg/mL	0.0438	0.0538	0.0533

Conditions	Bliss interaction score
[2]	0.0297
[3]	0.0726
[4]	-0.15
[5]	0.0412

O=C(O[C@@H]1Cc2c(O)cc(O)cc2O[C@@H]1c1cc(O)c(O)c(O)c1)c1cc(O)c(O)c(O)c1 [EGCG] + C/C(=C\C(=O)OCCCCCCCCC(=O)O)C[C@@H]1OC[C@H](C[C@@H]2O[C@H]2[C@@H](C)[C@H](C)O)[C@@H](O)[C@H]1O [Pseudomonic acid]
fitness, [6]
Conditions	first compound 12.5 µg/mL	first compound 25 µg/mL	first compound 50 µg/mL
partner 0.03 µg/mL	0.879	0.953	0.926
partner 0.06 µg/mL	0.74	0.824	–
partner 0.12 µg/mL	0.494	–	0.545

fitness, [1], one replicate
Conditions	first compound 12.5 µg/mL	first compound 25 µg/mL	first compound 50 µg/mL
partner 0.0313 µg/mL	0.0563	0.0468	0.0316
partner 0.0625 µg/mL	0.0491	0.0391	0.0458
partner 0.125 µg/mL	0.0477	0.0401	0.0275

Conditions	Bliss interaction score
[2]	-0.014
[3]	-0.06
[4]	-0.0856
[5]	0.0163

C/C(=C\C(=O)OCCCCCCCCC(=O)O)C[C@@H]1OC[C@H](C[C@@H]2O[C@H]2[C@@H](C)[C@H](C)O)[C@@H](O)[C@H]1O [Pseudomonic acid] + CCCCCCCCCC(=O)N[C@@H]1[C@H]([C@@H]([C@H](O[C@H]1OC2=C3C=C4C=C2OC5=C(C=C(C=C5)[C@H]([C@H]6C(=O)N[C@@H](C7=C(C(=CC(=C7)O)OC8[C@H]([C@H]([C@@H]([C@H](O8)CO)O)O)O)C9=C(C=CC(=C9)[C@H](C(=O)N6)NC(=O)[C@@H]4NC(=O)[C@@H]1C2=CC(=CC(=C2)OC2=C(C=CC(=C2)[C@H](C(=O)N[C@H](CC2=CC(=C(O3)C=C2)Cl)C(=O)N1)N)O)O)O)C(=O)O)O[C@H]1[C@@H]([C@H]([C@@H]([C@H](O1)CO)O)O)NC(=O)C)Cl)CO)O)O [Teicoplanin]
fitness, [1], one replicate, main component drawn
Conditions	first compound 0.0313 µg/mL	first compound 0.0625 µg/mL	first compound 0.125 µg/mL
partner 0.1562 µg/mL	0.0547	0.0391	0.0327
partner 0.3125 µg/mL	0.0341	0.0111	0.005
partner 0.625 µg/mL	0.0079	0.0049	0.0139

main component drawn
Conditions	Bliss interaction score
[2]	-0.0304
[3]	0.116
[4]	0.0843
[5]	-0.0375

CCCCCCCCCC(=O)N[C@H]1[C@H](Oc2c3cc4cc2Oc2ccc(cc2Cl)[C@@H](O[C@@H]2O[C@H](CO)[C@@H](O)[C@H](O)[C@H]2NC(C)=O)[C@@H]2NC(=O)[C@H](NC(=O)[C@@H]4NC(=O)[C@H]4NC(=O)[C@@H](Cc5ccc(c(Cl)c5)O3)NC(=O)[C@H](N)c3ccc(O)c(c3)Oc3cc(O)cc4c3)c3ccc(O)c(c3)-c3c(O[C@H]4O[C@H](CO)[C@@H](O)[C@H](O)[C@@H]4O)cc(O)cc3[C@@H](C(=O)O)NC2=O)O[C@H](CO)[C@@H](O)[C@@H]1O [Teicoplanin] + CN(C)c1cc(NC(=O)CNC(C)(C)C)c(O)c2c1C[C@H]1C[C@H]3[C@H](N(C)C)C(O)=C(C(N)=O)C(=O)[C@@]3(O)C(O)=C1C2=O [Tigecycline]
fitness, [1], main component drawn
Conditions	first compound 0.1562 µg/mL	first compound 0.3125 µg/mL	first compound 0.625 µg/mL
partner 0.039 µg/mL	≥ 1	0.98	≥ 1
partner 0.078 µg/mL	≥ 1	0.963	≥ 1
partner 0.156 µg/mL	≥ 1	≥ 1	≥ 1

fitness, [1], one replicate, main component drawn
Conditions	first compound 0.62 µg/mL	first compound 1.24 µg/mL	first compound 2.48 µg/mL
partner 0.039 µg/mL	0.757	0.736	0.456
partner 0.078 µg/mL	0.754	0.746	0.453
partner 0.156 µg/mL	0.813	0.756	0.427

main component drawn
Conditions	Bliss interaction score
[2]	0.108
[3]	0.123
[4]	0.0619
[5]	0.0513
